These results are taken from ChEMBL document CHEMBL1132866, “Synthesis of glycolipid analogues that disrupt binding of HIV-1 gp120 to galactosylceramide” (Bioorg Med Chem Lett, 2000).

The target in the assay is Envelope glycoprotein gp160 (Human immunodeficiency virus type 1 group M subtype B (isolate HXB2)(HIV-1), UniProt P04578). The experiment in a line: Binding affinity towards HIV glycoprotein gp120.

As for `CCCCCCCCCCCCC/C=C/[C@@H](O)[C@H](CO[C@@H]1O[C@@H](CO)[C@H](O)[C@H](O)[C@@H]1O)NC(=O)OCCCCCCCCCCCCCCCCCCCCCCC`, the Kd (as a rule, the constant that tells how readily two partners part at equilibrium) worked out at 11.4 nM.
